Assay results from ChEMBL document CHEMBL5247595, “Synthesis, antitumor, and apoptosis-inducing activities of novel 5-arylidenethiazolidine-2,4-dione derivatives: Histone deacetylases inhibitory activity and molecular docking study” (Eur J Med Chem, 2022).

Experiments:
HeLa = assay: cells; format: functional, cell-based; settings: Homo sapiens, 48 h
Description: Cytotoxicity against human HeLa cells assessed as inhibition of cell growth measured after 48 hrs by MTT assay

HepG2 = assay: cells; format: functional, cell-based; settings: Homo sapiens, HepG2, 48 h
Description: Cytotoxicity against human HepG2 cells assessed as inhibition of cell growth measured after 48 hrs by MTT assay

MCF7 = assay: cells; format: functional, cell-based; settings: Homo sapiens, MCF7, 48 h
Description: Cytotoxicity against human MCF7 cells assessed as inhibition of cell growth measured after 48 hrs by MTT assay

HCT-116 = assay: cells; format: functional, cell-based; settings: Homo sapiens, HCT-116, 48 h
Description: Cytotoxicity against human HCT-116 cells assessed as inhibition of cell growth measured after 48 hrs by MTT assay

in vitro = settings: human, WI-38 cells
Description: Cytotoxicity against human WI-38 cells assessed as inhibition of cell growth measured after 48 hrs by MTT assay

PC-3 = assay: Cytotoxicity against human PC-3 cells assessed as inhibition of cell growth measured after 48 hrs by MTT assay; format: functional, cell-based; settings: PC-3, 48 h
Histone deacetylase 2 = Histone deacetylase 2 (Homo sapiens, UniProt Q92769); assay: Inhibition of HDAC2 (unknown origin) by ELISA assay
Chain of Histone deacetylase 2 (Q92769 whole entry): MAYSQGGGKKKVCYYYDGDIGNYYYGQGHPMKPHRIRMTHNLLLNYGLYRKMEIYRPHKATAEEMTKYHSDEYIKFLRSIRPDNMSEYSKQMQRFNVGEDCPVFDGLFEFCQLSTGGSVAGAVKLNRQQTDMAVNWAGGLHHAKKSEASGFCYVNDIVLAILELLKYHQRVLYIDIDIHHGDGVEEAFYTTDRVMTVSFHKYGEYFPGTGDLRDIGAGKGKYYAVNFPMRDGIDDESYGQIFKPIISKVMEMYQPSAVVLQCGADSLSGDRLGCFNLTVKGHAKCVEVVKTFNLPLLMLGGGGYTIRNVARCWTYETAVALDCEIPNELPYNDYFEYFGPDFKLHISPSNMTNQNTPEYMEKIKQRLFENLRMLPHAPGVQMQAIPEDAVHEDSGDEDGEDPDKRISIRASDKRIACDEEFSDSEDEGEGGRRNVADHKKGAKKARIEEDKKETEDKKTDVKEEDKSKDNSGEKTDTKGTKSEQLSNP

[1] = target: T1, Protein deacetylase HDAC6 (Homo sapiens, UniProt Q9UBN7); assay: Inhibition of HDAC6 (unknown origin) by ELISA assay
T1 sequence (Q9UBN7 whole entry): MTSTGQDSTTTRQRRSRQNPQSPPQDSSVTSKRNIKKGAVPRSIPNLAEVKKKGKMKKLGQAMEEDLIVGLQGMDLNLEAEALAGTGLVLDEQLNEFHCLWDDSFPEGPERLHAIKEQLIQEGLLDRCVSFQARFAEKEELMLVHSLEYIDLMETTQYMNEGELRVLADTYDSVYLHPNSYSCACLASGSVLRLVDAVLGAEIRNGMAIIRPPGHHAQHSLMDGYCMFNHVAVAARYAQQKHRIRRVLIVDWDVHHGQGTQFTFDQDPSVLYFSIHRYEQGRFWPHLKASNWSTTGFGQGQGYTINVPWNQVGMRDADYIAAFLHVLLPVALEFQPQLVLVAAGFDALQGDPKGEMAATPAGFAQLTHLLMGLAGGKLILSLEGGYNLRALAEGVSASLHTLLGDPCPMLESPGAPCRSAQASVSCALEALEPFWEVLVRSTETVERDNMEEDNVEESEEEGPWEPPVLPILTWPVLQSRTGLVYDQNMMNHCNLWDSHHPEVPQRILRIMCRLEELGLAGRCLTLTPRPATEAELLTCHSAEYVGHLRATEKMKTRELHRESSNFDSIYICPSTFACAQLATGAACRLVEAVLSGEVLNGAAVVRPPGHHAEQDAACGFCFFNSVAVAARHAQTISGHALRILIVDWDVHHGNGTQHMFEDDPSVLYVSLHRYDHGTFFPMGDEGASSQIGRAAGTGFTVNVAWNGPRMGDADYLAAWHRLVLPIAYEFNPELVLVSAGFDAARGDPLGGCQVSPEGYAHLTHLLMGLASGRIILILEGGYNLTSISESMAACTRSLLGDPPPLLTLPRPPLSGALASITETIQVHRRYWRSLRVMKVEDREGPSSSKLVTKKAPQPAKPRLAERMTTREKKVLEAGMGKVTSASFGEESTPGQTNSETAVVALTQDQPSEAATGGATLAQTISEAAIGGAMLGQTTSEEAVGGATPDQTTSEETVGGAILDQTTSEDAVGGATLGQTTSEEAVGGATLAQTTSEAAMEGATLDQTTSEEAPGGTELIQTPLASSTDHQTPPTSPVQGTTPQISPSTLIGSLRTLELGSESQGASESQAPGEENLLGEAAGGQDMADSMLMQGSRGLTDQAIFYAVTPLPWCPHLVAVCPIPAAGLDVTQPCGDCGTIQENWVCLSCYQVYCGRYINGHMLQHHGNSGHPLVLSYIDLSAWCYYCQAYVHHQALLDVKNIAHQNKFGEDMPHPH

Histone deacetylase 1 = Histone deacetylase 1 (Homo sapiens, UniProt Q13547); assay: Inhibition of HDAC1 (unknown origin) by ELISA assay
Chain of Histone deacetylase 1 (Q13547 whole entry): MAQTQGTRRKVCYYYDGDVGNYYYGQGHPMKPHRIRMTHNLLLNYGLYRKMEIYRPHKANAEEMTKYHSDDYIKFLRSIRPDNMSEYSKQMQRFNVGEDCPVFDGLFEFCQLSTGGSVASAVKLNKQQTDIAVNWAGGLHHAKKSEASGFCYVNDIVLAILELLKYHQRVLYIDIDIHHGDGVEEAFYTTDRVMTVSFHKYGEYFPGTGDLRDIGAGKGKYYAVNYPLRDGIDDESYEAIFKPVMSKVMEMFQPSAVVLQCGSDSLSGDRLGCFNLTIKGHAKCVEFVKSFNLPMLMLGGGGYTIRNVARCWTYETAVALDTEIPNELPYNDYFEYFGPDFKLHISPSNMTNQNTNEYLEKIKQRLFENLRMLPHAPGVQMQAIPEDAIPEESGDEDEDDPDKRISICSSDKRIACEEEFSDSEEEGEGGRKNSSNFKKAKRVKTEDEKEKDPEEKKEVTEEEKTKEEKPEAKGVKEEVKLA

Histone deacetylase 8 = target: T2, Histone deacetylase 8 (Homo sapiens, UniProt Q9BY41); assay: Inhibition of HDAC8 (unknown origin) by ELISA assay
T2 sequence (Q9BY41 whole entry): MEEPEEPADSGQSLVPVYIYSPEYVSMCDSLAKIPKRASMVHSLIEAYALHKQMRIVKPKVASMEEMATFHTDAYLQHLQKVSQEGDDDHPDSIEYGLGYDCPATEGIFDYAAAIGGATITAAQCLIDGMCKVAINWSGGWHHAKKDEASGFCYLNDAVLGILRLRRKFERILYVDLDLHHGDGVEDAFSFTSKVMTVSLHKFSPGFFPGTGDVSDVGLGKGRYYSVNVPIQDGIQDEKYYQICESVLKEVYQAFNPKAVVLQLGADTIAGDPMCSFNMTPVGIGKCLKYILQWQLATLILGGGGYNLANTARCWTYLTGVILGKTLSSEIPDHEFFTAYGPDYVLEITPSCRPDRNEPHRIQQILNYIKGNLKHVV

Structure (SMILES)	IC50 (HeLa)	IC50 (HepG2)	IC50 (MCF7)	IC50 (HCT-116)	IC50 at 48 h (in vitro)	IC50 (Histone deacetylase 2)	IC50 [1]	IC50 (Histone deacetylase 1)	IC50 (Histone deacetylase 8)	IC50 (PC-3)
Cc1c(NC(=O)NCCN2C(=O)S/C(=C\c3ccc(Cl)cc3)C2=O)c(=O)n(-c2ccccc2)n1C	29.4 µM	38.8 µM	46.9 µM	36.3 µM	27.5 µM					40.1 µM
COc1cc(/C=C2\SC(=O)N(CCNC(=O)Nc3c(C)n(C)n(-c4ccccc4)c3=O)C2=O)cc(OC)c1OC	15.8 µM	10.8 µM	7.58 µM	12.5 µM	51.5 µM	1.74 µM	0.475 µM	0.349 µM	0.344 µM	35.4 µM
COc1ccc(/C=C2\SC(=O)N(CC(=O)Nc3c(C)n(C)n(-c4ccccc4)c3=O)C2=O)cc1	64.8 µM	68.5 µM	75.6 µM	70.3 µM	52.9 µM					93.7 µM
Cc1ccc(/C=C2\SC(=O)N(CCNC(=O)Nc3c(C)n(C)n(-c4ccccc4)c3=O)C2=O)cc1	22.4 µM	25.7 µM	37.4 µM	32.7 µM	48.1 µM					58.6 µM

The remaining molecules from weak to strong by IC50 (HeLa), led by results:

IC50 (HeLa)	IC50 (HepG2)	IC50 (MCF7)	IC50 (HCT-116)	IC50 at 48 h (in vitro)	IC50 (Histone deacetylase 2)	IC50 [1]	IC50 (Histone deacetylase 1)	IC50 (Histone deacetylase 8)	Structure (SMILES)	IC50 (PC-3)
53.1 µM	57.6 µM	65.5 µM	47.6 µM	83.7 µM					Cc1ccc(/C=C2\SC(=O)N(CC(=O)Nc3c(C)n(C)n(-c4ccccc4)c3=O)C2=O)cc1	45.3 µM
19.9 µM	31.9 µM	42.6 µM	23 µM	54.4 µM					Cc1c(NC(=O)CN2C(=O)S/C(=C\c3ccc(Cl)cc3)C2=O)c(=O)n(-c2ccccc2)n1C	28.9 µM
